Data published in publication PMC3365763 (The Journal of Biological Chemistry, 2012).

Target: T1, TG2 (transglutaminase-2, transglutaminase type 2) (Homo sapiens, UniProt P21980, R263S)
T1 sequence (P21980 1-687 R263S): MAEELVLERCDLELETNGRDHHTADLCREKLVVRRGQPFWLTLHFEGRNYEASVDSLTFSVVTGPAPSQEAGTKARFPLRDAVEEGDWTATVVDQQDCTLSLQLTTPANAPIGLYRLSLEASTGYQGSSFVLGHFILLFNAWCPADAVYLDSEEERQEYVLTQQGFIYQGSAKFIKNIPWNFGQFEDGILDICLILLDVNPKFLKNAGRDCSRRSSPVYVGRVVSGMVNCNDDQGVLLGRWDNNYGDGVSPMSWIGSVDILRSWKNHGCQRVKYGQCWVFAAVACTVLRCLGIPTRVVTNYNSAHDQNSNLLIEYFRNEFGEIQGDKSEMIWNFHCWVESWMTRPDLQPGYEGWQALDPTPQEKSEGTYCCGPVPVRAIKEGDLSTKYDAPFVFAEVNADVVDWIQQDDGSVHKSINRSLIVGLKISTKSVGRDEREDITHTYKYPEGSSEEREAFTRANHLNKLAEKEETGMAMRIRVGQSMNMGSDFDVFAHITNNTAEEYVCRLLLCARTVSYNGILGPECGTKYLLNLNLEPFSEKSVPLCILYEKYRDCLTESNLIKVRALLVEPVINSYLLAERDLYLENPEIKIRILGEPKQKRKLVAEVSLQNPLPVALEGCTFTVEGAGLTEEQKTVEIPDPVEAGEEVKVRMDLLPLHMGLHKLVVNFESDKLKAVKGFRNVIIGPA
Assay type: biochemical

IC50: 79 ± 15 µM
Structure (SMILES): Nc1nc2c(ncn2[C@@H]2O[C@H](COP(=O)(O)OP(=O)(O)OP(=O)(O)O)[C@@H](O)[C@H]2O)c(=O)[nH]1 [GTP]
